Assay results as given in US20230090982A1, “DRUG FOR TREATING C[…] […] […] C” (priority 2020, published 2023).
Like-named read-outs stand apart in the source and are kept apart here.

Experiments:
[1] = tested on: Primary human gingival fibroblasts
Description: (§1) The radioactivity of the samples was measured on a Tri-Carb 2800 TR (3-counter (PerkinElmer, USA) in an ULTIMA GOLD LLT scintillator (Perkin Elmer, USA). An aliquot of the sample (0.1 mL) was thoroughly mixed with the scintillator (0.9 mL) and the radioactivity was measured within no more than 2 h after the mixture was prepared.
(§2) Cells were cultured on the surface of 48-well polystyrene plates.
(§3) Primary human gingival fibroblasts and cervical adenocarcinoma HeLa cells were used as cell cultures. Cells were cultured in IMDM culture medium supplemented with 10% fetal bovine serum and an antibiotic (penicillin and streptomycin) in an atmosphere of 6% CO2, at 37° C.
(§4) During the experiment, the cells were placed into 48-well polystyrene plates with a well diameter of 1 cm, in the amount of 12 thousand cells per well, in triplicate for each type of sample (in 0.5 ml of culture medium). […] The cell suspension was sedimented by centrifugation at 800 g for 10 min, and aliquots were taken from the trypsin supernatant. The cell precipitation was resuspended in 220 μl of saline and 2 aliquots of 100 μl were taken to measure the radioactivity of the samples.

[2] = tested on: HeLa cervical adenocarcinoma cells
Description: as §1, §2, §3, §4

[3] = in water, alcohol; cited from earlier work
[4] = 0.074% formaldehyde diluted in culture medium, compared with 0.11% formaldehyde solution
[5] = 0.074% formaldehyde in saline, compared with incubation in 0.11% formaldehyde solution
[6] = incubation in culture medium, added formaldehyde 0.00056%
[7] = incubation in culture medium, added formaldehyde 0.0028%
[8] = incubation in culture medium, added formaldehyde 0.014%
[9] = incubation in culture medium, added formaldehyde 0.074%
[10] = incubation in culture medium, added formaldehyde 0.11%
[11] = incubation in saline, added formaldehyde 0.00056%
[12] = incubation in saline, added formaldehyde 0.0028%
[13] = incubation in saline, added formaldehyde 0.014%
[14] = incubation in saline, added formaldehyde 0.074%
[15] = incubation in saline, added formaldehyde 0.11%

C=O [formaldehyde]
activation of the production of endogenous formaldehyde [1, 4]: 20.6%
activation of the production of endogenous formaldehyde [1, 5]: 18.4%
Formaldehyde accumulation, Cells, % of what added [1, 6]: 0.25 ± 0.02 % of what added
Formaldehyde accumulation, Trypsin eluate, % of what added [1, 6]: 0.23 ± 0.03 % of what added
Formaldehyde accumulation, Cells, % of what added [1, 7]: 0.55 ± 0.07 % of what added
Formaldehyde accumulation, Trypsin eluate, % of what added [1, 7]: 0.56 ± 0.16 % of what added
Formaldehyde accumulation, Cells, % of what added [1, 8]: 1.25 ± 0.13 % of what added
Formaldehyde accumulation, Trypsin eluate, % of what added [1, 8]: 1.36 ± 0.15 % of what added
Formaldehyde accumulation, Cells, % of what added [1, 9]: 1.7 ± 0.11 % of what added
Formaldehyde accumulation, Trypsin eluate, % of what added [1, 9]: 2.33 ± 0.34 % of what added
Formaldehyde accumulation, Cells, % of what added [1, 10]: 1.35 ± 0.09 % of what added
Formaldehyde accumulation, Trypsin eluate, % of what added [1, 10]: 1.77 ± 0.16 % of what added
Formaldehyde accumulation, Cells, % of what added [1, 11]: 0.53 ± 0.04 % of what added
Formaldehyde accumulation, Trypsin eluate, % of what added [1, 11]: 0.45 ± 0.03 % of what added
Formaldehyde accumulation, Cells, % of what added [1, 12]: 1.26 ± 0.11 % of what added
Formaldehyde accumulation, Trypsin eluate, % of what added [1, 12]: 1.73 ± 0.23 % of what added
Formaldehyde accumulation, Cells, % of what added [1, 13]: 3.11 ± 0.27 % of what added
Formaldehyde accumulation, Trypsin eluate, % of what added [1, 13]: 3.41 ± 0.44 % of what added
Formaldehyde accumulation, Cells, % of what added [1, 14]: 2.12 ± 0.33 % of what added
Formaldehyde accumulation, Trypsin eluate, % of what added [1, 14]: 5.16 ± 0.85 % of what added
Formaldehyde accumulation, Cells, % of what added [1, 15]: 1.73 ± 0.23 % of what added
Formaldehyde accumulation, Trypsin eluate, % of what added [1, 15]: 3.71 ± 0.45 % of what added
activation of the production of endogenous formaldehyde [2, 4]: 30.2%
activation of the production of endogenous formaldehyde [2, 5]: 32%
Formaldehyde accumulation, Cells, % of what added [2, 6]: 0.28 ± 0.03 % of what added
Formaldehyde accumulation, Trypsin eluate, % of what added [2, 6]: 0.20 ± 0.02 % of what added
Formaldehyde accumulation, Cells, % of what added [2, 7]: 0.64 ± 0.13 % of what added
Formaldehyde accumulation, Trypsin eluate, % of what added [2, 7]: 0.45 ± 0.06 % of what added
Formaldehyde accumulation, Cells, % of what added [2, 8]: 1.52 ± 0.09 % of what added
Formaldehyde accumulation, Trypsin eluate, % of what added [2, 8]: 1.92 ± 0.11 % of what added
Formaldehyde accumulation, Cells, % of what added [2, 9]: 2.75 ± 0.18 % of what added
Formaldehyde accumulation, Trypsin eluate, % of what added [2, 9]: 2.54 ± 0.14 % of what added
Formaldehyde accumulation, Cells, % of what added [2, 10]: 1.92 ± 0.16 % of what added
Formaldehyde accumulation, Trypsin eluate, % of what added [2, 10]: 1.83 ± 0.12 % of what added
Formaldehyde accumulation, Cells, % of what added [2, 11]: 0.62 ± 0.04 % of what added
Formaldehyde accumulation, Trypsin eluate, % of what added [2, 11]: 0.57 ± 0.04 % of what added
Formaldehyde accumulation, Cells, % of what added [2, 12]: 1.34 ± 0.05 % of what added
Formaldehyde accumulation, Trypsin eluate, % of what added [2, 12]: 2.14 ± 0.08 % of what added
Formaldehyde accumulation, Cells, % of what added [2, 13]: 2.65 ± 0.11 % of what added
Formaldehyde accumulation, Trypsin eluate, % of what added [2, 13]: 3.44 ± 0.19 % of what added
Formaldehyde accumulation, Cells, % of what added [2, 14]: 2.75 ± 0.18 % of what added
Formaldehyde accumulation, Trypsin eluate, % of what added [2, 14]: 3.32 ± 0.27 % of what added
Formaldehyde accumulation, Cells, % of what added [2, 15]: 1.85 ± 0.25 % of what added
Formaldehyde accumulation, Trypsin eluate, % of what added [2, 15]: 2.41 ± 0.11 % of what added
solubility [3]: well dissolve in water, alcohol
